The values below come from paper PMC10619430, “Xenobiotic Exposure and Migraine-Associated Signaling: A Multimethod Experimental Study Exploring Cellular Assays in Combination with Ex Vivo and In Vivo Mouse Models” (Environmental Health Perspectives, 2023).

Holding throughout (assay type): cell-based
For assay [1], the target named is T1, human TRPA1 channel (hTRPA1) (Homo sapiens, UniProt O75762). The assay can be described thus: fluo-4 calcium imaging in hTRPA1-HEK vs control cells at […] ([…] of ionomycin, […] of SCA response).
Assay [2] addresses T1, human TRPA1 channel (hTRPA1). The assay can be described thus: fluo-4 calcium imaging in hTRPA1-HEK vs control cells at […]. As to conditions: read-out: % of ionomycin response at 100 μM.
For assay [3] the target is unchanged. Nature of the assay: whole-cell patch clamp in hTRPA1-HEK cells vs control cells; calcium imaging.

As usually defined, the EC50 is the concentration at which the effect is half-maximal.

T1 sequence (O75762 whole entry): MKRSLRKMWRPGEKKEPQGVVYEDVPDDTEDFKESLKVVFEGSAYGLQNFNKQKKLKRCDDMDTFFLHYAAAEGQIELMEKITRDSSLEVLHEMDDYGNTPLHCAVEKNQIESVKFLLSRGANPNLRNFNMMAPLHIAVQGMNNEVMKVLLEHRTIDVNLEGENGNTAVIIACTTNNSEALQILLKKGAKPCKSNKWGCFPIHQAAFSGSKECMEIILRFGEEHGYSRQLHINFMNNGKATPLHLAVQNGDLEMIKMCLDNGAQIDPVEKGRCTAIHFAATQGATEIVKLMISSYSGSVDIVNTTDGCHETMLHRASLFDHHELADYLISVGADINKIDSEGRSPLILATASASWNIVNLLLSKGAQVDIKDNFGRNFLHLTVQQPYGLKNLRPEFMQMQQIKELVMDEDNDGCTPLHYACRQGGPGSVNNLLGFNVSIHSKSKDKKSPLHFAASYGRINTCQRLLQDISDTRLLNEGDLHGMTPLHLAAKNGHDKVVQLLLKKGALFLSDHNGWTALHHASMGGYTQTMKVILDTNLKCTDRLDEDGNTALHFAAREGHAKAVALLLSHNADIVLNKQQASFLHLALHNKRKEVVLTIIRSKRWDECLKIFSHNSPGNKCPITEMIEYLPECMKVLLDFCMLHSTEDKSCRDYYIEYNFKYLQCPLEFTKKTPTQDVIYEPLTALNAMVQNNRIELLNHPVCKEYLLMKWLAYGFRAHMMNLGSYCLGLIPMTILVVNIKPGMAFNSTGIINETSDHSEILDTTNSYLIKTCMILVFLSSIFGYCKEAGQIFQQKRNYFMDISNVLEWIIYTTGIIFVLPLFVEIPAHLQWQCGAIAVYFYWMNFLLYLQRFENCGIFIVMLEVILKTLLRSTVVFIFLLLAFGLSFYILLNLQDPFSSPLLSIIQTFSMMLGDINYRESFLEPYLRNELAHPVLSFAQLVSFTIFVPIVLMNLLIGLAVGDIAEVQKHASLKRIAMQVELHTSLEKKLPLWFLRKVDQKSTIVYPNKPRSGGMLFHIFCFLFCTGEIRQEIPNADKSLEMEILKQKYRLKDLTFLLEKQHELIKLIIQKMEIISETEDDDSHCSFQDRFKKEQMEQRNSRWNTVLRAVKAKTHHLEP

For the molecule `Oc1c(Cl)cc(Cl)c(Cl)c1Cc1c(O)c(Cl)cc(Cl)c1Cl` [HCP, 3,4,6-trichloro-2-[(2,3,5-trichloro-6-hydroxyphenyl)methyl]phenol], the activation at 10 µM in assay [1] was determined as 47%. For the molecule `CC(C)(c1ccc(O)cc1)c1ccc(O)cc1` [BPA, 4-[2-(4-hydroxyphenyl)propan-2-yl]phenol], the activation at 100 µM in assay [2] came out at 11%. As to `O=C(OCc1ccccc1)c1ccc(O)cc1` [BzPa, Benzyl 4-hydroxybenzoate], the activation at 100 µM in assay [2] was found to be 34.2%.

Consider `Oc1c(Cl)c(Cl)c(Cl)c(Cl)c1Cl` [PCP, 2,3,4,5,6-pentachlorophenol], for which, in assay [3], the EC50 turned out to be 15 µM.
